Measurements: ChEMBL document CHEMBL1201862, “PubChem BioAssay data set” (2004)
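Step 1: Grow cells in 96-well plates. Step 2: Expose to compound for 48 hours at 5 concentrations. Step 3: Interpolate endpoints linearly; if unreached, use highest concentration. Abbreviation: GI50, concentration required for 50% inhibition of growth.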 Calls of active or inactive are those of the source. No stated cut-off is given here; in the data, active = GI50 up to about 1.1 µM and inactive = higher.

Experiments:
Experiment in all cases: NCI anticancer screen, dose series, 48 h
SF-268 = system: SF-268
RPMI-8226 = system: RPMI-8226
SN12C = system: SN12C
OVCAR-5 = system: OVCAR-5
SNB-75 = system: SNB-75
HOP-62 = system: HOP-62
IGROV-1 = system: IGROV-1
K562 = system: K562
M14 = system: M14
786-0 = system: 786-0
NCI-H226 = system: NCI-H226
NCI-H522 = system: NCI-H522
CCRF-CEM = system: CCRF-CEM
OVCAR-4 = system: OVCAR-4
SK-MEL-2 = system: SK-MEL-2
NCI/ADR-RES = system: NCI/ADR-RES
SK-MEL-28 = system: SK-MEL-28
MDA-MB-435 = system: MDA-MB-435
HCT-15 = system: HCT-15
MDA-MB-231 = system: MDA-MB-231
U-251 = system: U-251
UACC-257 = system: UACC-257
PC-3 = system: PC-3
MCF7 = system: MCF7
Hs-578T = system: Hs-578T
HCC 2998 = system: HCC 2998
UO-31 = system: UO-31
HCT-116 = system: HCT-116
SK-OV-3 = system: SK-OV-3
Malme-3M = system: Malme-3M
UACC-62 = system: UACC-62
TK-10 = system: TK-10
T47D = system: T47D
LOX IMVI = system: LOX IMVI
OVCAR-3 = system: OVCAR-3
SNB-19 = system: SNB-19
COLO 205 = system: COLO 205
BT-549 = system: BT-549
SK-MEL-5 = system: SK-MEL-5
SR = system: SR
MOLT-4 = system: MOLT-4
SF-295 = system: SF-295
HOP-92 = system: HOP-92
NCI-H23 = system: NCI-H23
DU-145 = system: DU-145
CAKI-1 = system: CAKI-1
OVCAR-8 = system: OVCAR-8
SW-620 = system: SW-620
MDA-N = system: MDA-N
A498 = system: A498
EKVX = system: EKVX
NCI-H460 = system: NCI-H460
ACHN = system: ACHN
HT-29 = system: HT-29
A549 = system: A549
SF-539 = system: SF-539
HL-60 = system: HL-60
RXF 393 = system: RXF 393
KM12 = system: KM12

Measured: GI50

COc1ccc2c(c1)CCc1c-2n(CCN2CCCCC2)c2ccc(OC)cc12
inactive: SF-268 > 100 µM | RPMI-8226 > 100 µM | SN12C > 100 µM | OVCAR-5 > 100 µM | SNB-75 > 100 µM | HOP-62 > 100 µM | IGROV-1 > 100 µM | K562 78.7 µM | M14 > 100 µM | 786-0 > 100 µM | NCI-H226 10.4 µM | NCI-H522 61.5 µM | CCRF-CEM > 100 µM | OVCAR-4 > 100 µM | SK-MEL-2 > 100 µM | NCI/ADR-RES 28.2 µM | SK-MEL-28 > 100 µM | MDA-MB-435 > 100 µM | MDA-MB-231 > 100 µM | U-251 > 100 µM | UACC-257 > 100 µM | PC-3 > 100 µM | MCF7 > 100 µM | Hs-578T > 100 µM | HCC 2998 > 100 µM | UO-31 > 100 µM | HCT-116 > 100 µM | SK-OV-3 > 100 µM | Malme-3M > 100 µM | UACC-62 > 100 µM | TK-10 > 100 µM | T47D > 100 µM | LOX IMVI > 100 µM | OVCAR-3 > 100 µM | SNB-19 > 100 µM | COLO 205 > 100 µM | BT-549 > 100 µM | SK-MEL-5 > 100 µM | SR > 100 µM | MOLT-4 > 10 µM | SF-295 > 100 µM | HOP-92 > 10 µM | NCI-H23 > 100 µM | DU-145 > 100 µM | CAKI-1 > 100 µM | OVCAR-8 92 µM | SW-620 > 100 µM | MDA-N > 100 µM | A498 > 100 µM | EKVX > 100 µM | NCI-H460 > 100 µM | ACHN > 100 µM | HT-29 9.12 µM | A549 > 100 µM
> 100 µM: HCT-15

CC1(C)CC(=O)c2c(nc3c4c([nH]c(-c5ccc(Br)cc5)c24)CC(C)(C)C3)C1
31.3 µM: HCT-15
inactive: SF-268 55.6 µM | SN12C 98.6 µM | OVCAR-5 84.9 µM | SNB-75 27.9 µM | HOP-62 > 100 µM | K562 18.2 µM | M14 36.6 µM | 786-0 22 µM | NCI-H226 40.8 µM | NCI-H522 23.6 µM | CCRF-CEM 16.9 µM | SF-539 76.6 µM | OVCAR-4 30.7 µM | SK-MEL-2 36.6 µM | NCI/ADR-RES 33.7 µM | SK-MEL-28 98.9 µM | MDA-MB-435 29.7 µM | MDA-MB-231 44 µM | U-251 23.8 µM | UACC-257 66.7 µM | PC-3 22.4 µM | MCF7 33 µM | Hs-578T 33 µM | HCC 2998 19.2 µM | UO-31 45.1 µM | HCT-116 36.3 µM | SK-OV-3 > 100 µM | Malme-3M 49.1 µM | UACC-62 53.6 µM | TK-10 61.1 µM | T47D 23.2 µM | LOX IMVI 30.2 µM | OVCAR-3 27.1 µM | SNB-19 70.3 µM | COLO 205 19.8 µM | BT-549 35.8 µM | SK-MEL-5 26.8 µM | SR 8.65 µM | HL-60 43.3 µM | MOLT-4 13.8 µM | SF-295 21.3 µM | HOP-92 28.7 µM | NCI-H23 52.1 µM | DU-145 65.3 µM | CAKI-1 50.4 µM | OVCAR-8 49.8 µM | SW-620 49.3 µM | MDA-N 40.3 µM | A498 13.6 µM | EKVX 50.2 µM | NCI-H460 37.8 µM | RXF 393 22.8 µM | ACHN 42.7 µM | HT-29 4.79 µM | KM12 33.4 µM | A549 29.6 µM
